Assay results reported in PubChem BioAssay (NCI).
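Each compound was tested at five concentrations against cells in 96-well plates for 48 hours. GI50: concentration for 50% inhibition of growth. Definition used: TGI = concentration required for complete inhibition of growth.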

Columns and labels:
Experiment in all cases: NCI anticancer screen, dose series, 48 h
[1] = test system: 786-0 renal
[2] = test system: A498 renal
[3] = test system: CCRF-CEM leukemia
[4] = test system: HOP-92 NSCLC
[5] = test system: K-562 leukemia
[6] = test system: NCI-H460 lung
[7] = test system: RPMI-8226 leukemia
[8] = test system: SF-295 CNS
[9] = test system: SW-620 colon
[10] = test system: TK-10 renal

SMILES	TGI [1] [µM]	TGI [2] [µM]	TGI [3] [µM]	TGI [4] [µM]	TGI [5] [µM]	TGI [6] [µM]	TGI [7] [µM]	TGI [8] [µM]	TGI [9] [µM]	TGI [10] [µM]	GI50 [1] [µM]	GI50 [2] [µM]	GI50 [3] [µM]	GI50 [4] [µM]	GI50 [5] [µM]	GI50 [6] [µM]	GI50 [7] [µM]	GI50 [8] [µM]	GI50 [9] [µM]	GI50 [10] [µM]
NCc1nnn(Cc2ccccc2)c1N	> 100	> 100	> 100	> 100	> 100	> 100	> 100	> 100	> 100	> 100										
Nc1nc2nc[nH]c2c(=O)[nH]1	> 100	> 100	> 100	> 100	> 100	> 100	> 100	> 100	> 100	> 100										
CCCc1nc2c(C)cc(-c3nc4ccccc4n3C)cc2n1Cc1ccc(-c2ccccc2C(=O)O)cc1	> 100	> 100	> 100	> 100	> 100	> 100	95.9	> 100	> 100	> 100	41.4	20.4	22.7	25.7	23.2	32.5	17.3	34.4	49.3	55.8
O=C(/C=C\c1ccc(Cl)cc1Cl)c1cccs1	34.6	39	73.6	69.1	> 100	89.5	12.8	37.9	28.8	78.9										
COc1ccc(/C(C)=N/OC(=O)c2c(-c3ccccc3Cl)noc2C)cc1CN1CCOCC1	59.2		> 100	91.8	> 100	> 100	93.6	32.8	> 100	> 100										
Nc1ccn(C2CC(CO)C(O)C2O)c(=O)n1 (stereo not given)	> 57.7	> 57.7			> 57.7	> 57.7	> 57.7		> 57.7	> 57.7										
COc1ccc(/C=C2\CCC(C)(CN(C)C)C2=O)cc1 (stereo not given)	> 100	> 100		> 100	> 100	> 100	> 100	> 100	> 100	> 100										
C1=Cc2nc1c(-c1ccncc1)c1ccc([n-]1)c(-c1ccncc1)c1nc(c(-c3ccncc3)c3ccc([n-]3)c2-c2ccncc2)C=C1.[Zn+2]	> 100		> 100	> 100	> 100	> 100	> 100	> 100	> 100	> 100										
COc1ccc(-c2nc(-c3nc4ccc(OC)cc4[nH]3)cc3c2[nH]c2ccccc23)cc1	> 100	> 100	> 100		> 100	> 100	2.86		> 100	> 100	4.62	3.34	0.887		1.52	2.05	0.363		4.83	3.14
COC(=O)C1=C(CO)C2C=CC1C2 (stereo not given)	> 100	> 100	> 100		> 100	> 100	> 100	> 100	> 100	> 100										
Nc1c(-c2ccc(Cl)cc2Cl)[n+]([O-])c2ccccc2[n+]1[O-]	> 100	> 100	> 100		> 100	> 100	> 100	> 100	> 100	> 100										
Cc1cc(Cl)ccc1N=C1NC(=O)C(CC(=O)Nc2ccc(Cl)cc2Cl)S1 (stereo not given)	> 100		> 100		> 100	> 100	> 100	> 100	> 100	> 100										
COc1ccc(/C=C/c2n[nH]c3ccc(N4CCOC4=O)cc23)cc1	> 100	7.01		9.09	> 100	11.8	5.55	29.2	10.8	26.2	3.76	3.57		4	2.54	1.95	2.2	3.44	1.64	3.12
CC1C=CC(=O)C(n2cc(F)c(=O)[nH]c2=O)O1 (stereo not given)	31.3		34.4	35.5	79.8	54.2	38.7		36.7	34.4										
NCCC(O)(P(=O)(O)O)P(=O)(O)O	> 100	> 100	> 100	> 100	> 100	> 100	> 100		> 100	> 100	> 100	> 100	> 100	> 100	> 100	> 100	> 100		> 100	> 100
COC(=O)[C@]1(C)CCC[C@@]2(C)C1CCC1=CC3(C(C)C)CCC12OO3 (stereo not given in full)	> 100	> 100	> 100		> 100	> 100	> 100	> 100	> 100	> 100										
O=[N+]([O-])c1nccn1COCCF	> 100		> 100	> 100	> 100	> 100	> 100	> 100	> 100	> 100										
COc1cc2nc(Nc3cccc(F)c3)nc(Nc3cc(C)[nH]n3)c2cc1OC	3.45		> 100	3.21	4.94	3.74	5.6	3.04	3.75	3.68	1.75		1.11	1.67	1.36	1.83	1.69	1.58	1.84	1.82

SMILES	TGI [1] [µM]	TGI [2] [µM]	TGI [3] [µM]	TGI [4] [µM]	TGI [5] [µM]	TGI [6] [µM]	TGI [7] [µM]	TGI [8] [µM]	TGI [9] [µM]	TGI [10] [µM]	GI50 [1] [µM]	GI50 [2] [µM]	GI50 [3] [µM]	GI50 [4] [µM]	GI50 [5] [µM]	GI50 [6] [µM]	GI50 [7] [µM]	GI50 [8] [µM]	GI50 [9] [µM]	GI50 [10] [µM]
Nc1c(C(=O)Nc2ccccc2Cl)sc2nc3c(cc12)CCCCCC3	3.27	> 100		6.54	> 100	13.9	> 100	13.6	> 100	6.22	1.75	7.73		1.77	0.541	3.32	> 100	2.47	3.14	2.4
NCCNC(=S)S	> 100	> 100	90.6		95.1		58.8	> 100	> 100	> 100										
O=c1cnn2c(n1)sc1ccc3ccccc3c12	> 100		> 100	> 100	> 100	> 100	> 100	> 100	> 100	> 100										
COc1ccc(C2=NN(C(C)=O)C(c3cn(-c4ccccc4)nc3-c3ccc(Cl)cc3)C2)cc1 (stereo not given)	> 100	> 100	> 100	> 100	> 100		> 100	> 100	> 100		30.7	99.5	> 100	2.4	> 100		> 100	13.2		
CC(=O)N=c1ccc2nc3c(cc(N)c4ccccc43)oc-2c1	2.93	6.87	5.65	4.94		4.24	1.76		2.39	6.34	1.46	1.92	0.7	1.4	0.389	1.85	0.302		0.745	2.64
O=C(Nc1nc2ncn(CC(COc3ccccc3)OC(=O)c3ccccc3)c2c(=O)[nH]1)c1ccccc1 (stereo not given)	> 100	> 100			> 100		> 100	> 100	> 100											
COc1cc(-c2cc(-c3nc4ccc(Cl)cc4[nH]3)[nH]n2)cc(OC)c1OC	18.3	11	7.56		> 100	14	4.21	11.2	18.6	15.8	5.32	2.1	2.48		3.04	3.65	1.65	2.35	4.99	3.52
Cc1[nH]c(=O)[nH]c(=O)c1CO	> 100	> 100	> 100	> 100	> 100	> 100			> 100	> 100	> 100	> 100	> 100	> 100	> 100	> 100			> 100	> 100
C[C@@H]1C=C2C(=O)O[C@@H]3CC[C@H](C1)[C@]23O	17.7	38.3	11.5		34.6	32	10.7	35.3	12.8		4.29		2.66		2.7		2.93	13.6		
Cc1ccc(C)c(NC(=O)CC/C(=N\NC(=O)C(N)=O)C(C)C(=O)c2ccc(O)cc2)c1 (stereo not given)	> 100		> 100	> 100	> 100	> 100		> 100	> 100											
N#Cc1ccnc(N2C(=O)CC[C@H]2C(=O)N(c2cncc(F)c2)[C@H](C(=O)NC2CC(F)(F)C2)c2ccccc2Cl)c1	> 100	> 100	> 100	> 100	> 100	> 100	> 100	> 100	> 100		> 100	81.7	> 100	73	> 100	73.3	97.3	> 100	> 100	
O=c1c2ccccc2c2nc3ccccc3nc2n1C1CCCCC1	> 100				> 100		> 100	> 100	> 100	> 100										
Cc1nc(NC(=O)CCCN2C(=O)c3cccc4cccc(c34)C2=O)sc1C(=O)Nc1cc(C(=O)NCCCN(C)C)n(C)c1	> 100	> 100		> 100	> 100	> 100	> 100	> 100	> 100	> 100	> 100	> 100		> 100	> 100	> 100	> 100	> 100	> 100	> 100
CCC(C)C(NC(=O)C1CCCN1C(=O)C(NC(=O)C(C)N)C(C)C)C(N)=O (stereo not given)	> 100	> 100	> 100	> 100	> 100	> 100		> 100	> 100	> 100	> 100	> 100	> 100	> 100	> 100	> 100		> 100	> 100	> 100
Cc1ccc(C)c(-c2csc(Nc3ccc(C)c(C)c3)n2)c1	> 100		> 100	> 100	> 100		> 100	> 100	> 100	> 100	39.5		> 100	29	> 100		> 100	57.9	> 100	> 100
Cn1cc(C2=C(c3cn(CCN)c4ccccc34)C(=O)NC2=O)c2ccccc21	> 25	17.6	> 22.7		> 25	> 25	15.5	16.7	> 20.1	18.8	8.98	7.79	6.05		8.4	7.54	6.29	5.54	6.25	6.3
COc1ccc2nc3ccccc3c(NCCCCCCN(C)CCCl)c2c1	1.53	2.53	0.348	1.33		1.46	1.19	2.88	1.52	4.91										
O=C1C(=O)C(Br)(Br)C(Br)=C1Br	32.1		57.1	36.7	41.3	> 100	99.5	> 100	31.9	39.9										
